Source: US6831100B2, “Menthyl benzoate formulations for external UV protection” (priority 2000, dated 2004)

Assays:
[1] = test system: Escherichia coli wild type strain CA 8000; test: UV protection assay for bacteria cultivated in presence of the compounds; type: cell-based; details: for Titre estimated (cfu), Initial: bacteria grown in presence of compound, before UV exposure, control 3.73 × 10^7; for Killing % in comparison to the control: bacteria grown with compound, UV exposed
Text: (§1) UV light is not only harmful to humans but also to all other biological systems including microorganisms. The majority of the studies of the effect of UV light on microbes and its modes of action have shown the formation of thymidine dimers, which cause mutations and excessive exposure thus leads to death of the bacteria. […] Therefore, the assays involving the screening of potential UV protectant compounds against bacterial system exposure in presence and absence of test compound is easy, less time consuming and environmentally safe. We carried out simple experiments involving the bacterium Escherichia coli (Wild type) (Kumar, 5. 1976. Journal of Bacteriology, 125: 545-555) as the test system. Escherichia coli is a Gram negative bacterium and sensitive to ultraviolet light. The bacterial cells were grown in broth cultures were exposed to UV light for different time periods and the survival in terms of colony forming units was determined to estimate the killing percentage. The experiments comprised of a series of different steps in two distinct manners/routes (Example 1 and 2 below). In these examples, various quantities were mentioned are not confined to the said limits but can be variable depending upon the need and scale of experiment or screen to be employed. Two different approaches as described below were followed. In one case, the bacterial cells were grown in presence of the test compound and then exposed to UV while, in other case the bacteria were exposed to the two wavelength of UV light filtered through a UV transparent film coated with the compound and using uncoated film as control.
UV Protection Assays for the Bacteria Cultivated in Presence of the Compounds
Step A: Growing bacterial cultures: The wild type strain CA 8000 of Escherichia coli was in the assays. A single colony was inoculated in 5 ml Luria broth and incubated at 37° C. temperature for 16 hour in a water bath shaker. Bacteria were grown in presence of test compounds with plain LB as growth medium.
Step B: Determining killing percentage of bacteria in relation to UV exposure time: This was done in the following steps.
a. The broth culture was diluted to 10 times in sterile water.
b. About 0.3 ml of the diluted bacterial suspension was transferred to the petriplates forming a thin layer at the bottom (in replicates).
c. In the dark room a UV source was placed at least 10 cm above the plates (This distance may vary depending upon the need of the experiment)
d. The cfu (colony forming unit) count was determined by serially diluting the exposed and control bacteria and plating on the Luria agar plate followed by counting the viable units of the bacteria forming colonies upon incubation at 37° C. overnight.
These two exposure levels were used further in our experiment to test the efficacy of different compounds for UV protection.
Step C: The bacterial cultures were grown in presence of different concentrations of the test compounds, exposed in the same way as in step B and viable cfu count was determined.

[2] = test system: Escherichia coli wild type strain CA 8000; test: UV protection assay through compound-coated UV transparent film; type: cell-based; details: for Protection (%) / Titre after UV exposure, film coated with menthyl benzoate / Killing (%), film coated with menthyl benzoate: film coated 50 μg per ml, 312 nm; for Titre after UV exposure, film coated with menthyl benzoate: initial titre 2.490 × 10^8
Text: as §1
Exposure of the Bacteria to UV Light Through a UV Transparent Film Coated with the Compound
Step A: Growing bacterial cultures: The wild type strain, CA 8000 of Escherichia coli was used in the assays. A single colony was inoculated in 5 ml Luria broth and incubated at 37° C. temperature for 16 hour in a water bath shaker. Bacteria were grown in presence of test compounds with plain LB as growth medium.
Step B: The bacterial culture was harvested by centrifugation and pellet was suspended in equal amount of sterile distilled water. The bacterial pellet was harvested by centrifuging at 5000 RPM for 10 minute and suspended in 25 ml sterile distilled water.
Step C: About 0.3 ml of the broth culture of the bacteria was transferred to petriplates forming a thin layer at the bottom (in replicates). At least 5 replicates per treatment were used along with control plates containing bacteria.
Step D: The plates were covered with UV transparent film, which was coated with different concentrations of the test compounds.
Step E: In the dark room a UV source was placed at least 10 cm above the plates (which may vary depending upon the experiment). In this invention, the UV torch emitting two-fixed wavelength (312 nm and 365 nm) was used.
Step F: Light source was switched-on for different time intervals for the predetermined lethality levels based on the killing curve of control bacteria determined by UV exposure through uncoated film.
Step G: The viable cfu (colony forming unit) count was determined by serially diluting the exposed and control bacteria and then plating on the Luria agar plates followed by counting the viable units of the bacteria forming colonies (Table 1).

[3] = 120 seconds UV exposure (LD70), control 1.119 × 10^7
[4] = 120 seconds UV exposure, control 70.00%
[5] = 150 seconds UV exposure (LD80), control 0.746 × 10^7
[6] = 150 seconds UV exposure, control 80.00%
[7] = UV exposure equivalent to lethality level 10%
[8] = UV exposure equivalent to lethality level 25%
[9] = UV exposure equivalent to lethality level 50%

O=C(OCc1ccccc1)c1ccccc1 [Benzyl benzoate, Benzyl Benzoate]
Titre estimated (cfu), final after UV exposure [1, 3]: 1.460 × 10^7 cfu
Killing (%) after UV exposure [1, 4]: 60.86%
Titre estimated (cfu), final after UV exposure [1, 5]: 1.240 × 10^7 cfu
Killing (%) after UV exposure [1, 6]: 66.75%
Titre estimated (cfu), Initial [1]: 3.73 × 10^7 cfu
Killing % in comparison to the control [1]: much less in comparison to the control

O=C(CC(=O)c1ccccc1)c1ccccc1 [Dibenzoyl methane]
Titre estimated (cfu), final after UV exposure [1, 3]: 1.162 × 10^7 cfu
Killing (%) after UV exposure [1, 4]: 68.85%
Titre estimated (cfu), final after UV exposure [1, 5]: 1.050 × 10^7 cfu
Killing (%) after UV exposure [1, 6]: 71.85%
Titre estimated (cfu), Initial [1]: 3.73 × 10^7 cfu
Killing % in comparison to the control [1]: much less in comparison to the control

CC1CCC(C(C)C)C(OC(=O)c2ccccc2)C1 (stereo not shown) [Menthyl benzoate, Menthyl Benzoate]
Protection (%) [2, 7]: 70.01%
Titre after UV exposure, film coated with menthyl benzoate [2, 7]: 2.415 × 10^8 cfu per ml
Killing (%), film coated with menthyl benzoate ([2]; UV exposure equivalent to lethality level 10%, uncoated film 10.04%): 3.01%
Protection (%) [2, 8]: 24.58%
Titre after UV exposure, film coated with menthyl benzoate [2, 8]: 2.020 × 10^8 cfu per ml
Killing (%), film coated with menthyl benzoate ([2]; UV exposure equivalent to lethality level 25%, uncoated film 25.02%): 18.87%
Protection (%) [2, 9]: 12.67%
Titre after UV exposure, film coated with menthyl benzoate [2, 9]: 1.400 × 10^8 cfu per ml
Killing (%), film coated with menthyl benzoate ([2]; UV exposure equivalent to lethality level 50%, uncoated film 50.12%): 43.77%
Effect on percentage of lethality of the bacteria ([2]; at all levels of lethality tested): reduced the percentage of lethality of the bacteria
Most optimum concentration coated on the film for UV protection ([2]; out of all concentrations coated on the film, higher concentration does not substantially increase protection): 50 μg per ml
UV protection in comparison to other known UV protectants ([1]; 50 μg/ml in culture): significant protection
Titre estimated (cfu), final after UV exposure [1, 3]: 1.660 × 10^7 cfu
Killing (%) after UV exposure [1, 4]: 55.49%
Titre estimated (cfu), final after UV exposure [1, 5]: 1.300 × 10^7 cfu
Killing (%) after UV exposure [1, 6]: 65.15%
Titre estimated (cfu), Initial [1]: 3.73 × 10^7 cfu
Protection efficiency, comparison between compounds ([1]; descending series of the three compounds): better protectant than the commercially used dibenzoyl methane
Safety to the bacterial system: titre (cfu) when bacteria are grown in presence of the compound ([1]; treated versus untreated cultures, no UV): no decrease of titre was observed
